# Reference: ChEMBL document CHEMBL4334425, “Eradicating uropathogenic Escherichia coli biofilms with a ciprofloxacin-dinitroxide conjugate” (Medchemcomm, 2019)
# pIC50: −log10 of the molar value. Active and inactive are the calls of the source. The rule behind the calls is not given here.
# How the values were obtained:
# Escherichia coli [1] = experiment: Antibacterial activity against Escherichia coli UTI89 incubated for 18 hrs by broth microdilution method; assay type: functional
# Escherichia coli [2] = experiment: Antibiofilm activity against Escherichia coli UTI89 incubated for 24 hrs; assay type: functional
# T-24 = experiment: Cytotoxicity against human T24 cells assessed as reduction in cell viability incubated for 24 hrs by LDH assay; assay type: cell-based
# Escherichia coli [3] = experiment: Antibiofilm activity against Escherichia coli UTI89 assessed as cell filamentation at 12.5 to 25 uM incubated for 24 hrs by SYTO9 and PI staining based fluorescence microscopic method; assay type: functional, organism-based
# Escherichia coli [4] = experiment: Potentiation of ciprofloxacin-induced antibiofilm activity against Escherichia coli UTI89 assessed as increase in ciprofloxacin-induced log reduction in CFU at 20 uM incubated for 24 hrs; assay type: functional
# Escherichia coli [5] = experiment: Potentiation of ciprofloxacin-induced antibiofilm activity against Escherichia coli UTI89 assessed as increase in ciprofloxacin-induced log reduction in CFU at 80 uM incubated for 24 hrs; assay type: functional
# Escherichia coli [6] = experiment: Potentiation of ciprofloxacin-induced antibiofilm activity against Escherichia coli UTI89 assessed as increase in ciprofloxacin-induced reduction in CFU at 80 uM incubated for 24 hrs relative to control; assay type: functional; design: scale not given: the % may be the effect or the level left
# Escherichia coli [7] = experiment: Antibiofilm activity against Escherichia coli UTI89 assessed as reduction in viable bioflim associated cells at 12.5 uM incubated for 24 hrs relative to control; assay type: functional
# Escherichia coli [8] = experiment: Antibiofilm activity against Escherichia coli UTI89 at 12.5 uM incubated for 24 hrs by SYTO9 and PI staining based fluorescence microscopic method; assay type: functional
# Escherichia coli [9] = experiment: Antibiofilm activity against Escherichia coli UTI89 assessed as reduction in biofilm residing cells at 12.5 uM incubated for 24 hrs relative to control; assay type: functional; design: scale not given: the % may be the effect or the level left
# Escherichia coli [10] = experiment: Potentiation of ciprofloxacin-induced antibiofilm activity against Escherichia coli UTI89 assessed as increase in ciprofloxacin-induced reduction in CFU at 20 uM incubated for 24 hrs relative to control; assay type: functional; design: scale not given: the % may be the effect or the level left
# Escherichia coli [11] = experiment: Potentiation of ciprofloxacin-induced antibiofilm activity against Escherichia coli UTI89 assessed as increase in ciprofloxacin-induced log reduction in CFU at 40 uM incubated for 24 hrs; assay type: functional
# Escherichia coli [12] = experiment: Antibiofilm activity against Escherichia coli UTI89 at 400 uM incubated for 24 hrs by SYTO9 and PI staining based fluorescence microscopic method; assay type: functional
# Escherichia coli [13] = experiment: Antibiofilm activity against Escherichia coli UTI89 assessed as dead cells at 400 uM incubated for 24 hrs by SYTO9 and PI staining based fluorescence microscopic method; assay type: functional, organism-based
# Escherichia coli [14] = experiment: Potentiation of ciprofloxacin-induced antibiofilm activity against Escherichia coli UTI89 assessed as increase in ciprofloxacin-induced reduction in CFU at 40 uM incubated for 24 hrs relative to control; assay type: functional; design: scale not given: the % may be the effect or the level left
# Escherichia coli [15] = experiment: Ratio of MBEC for ciprofloxacin to compound for antibiofilm activity against Escherichia coli UTI89; assay type: functional
# Escherichia coli [16] = experiment: Antibiofilm activity against Escherichia coli UTI89 assessed as small bacterial cells at 400 uM incubated for 24 hrs by SYTO9 and PI staining based fluorescence microscopic method; assay type: functional, organism-based
# Escherichia coli [17] = experiment: Antibacterial activity against Escherichia coli UTI89 incubated for 18 hrs in presence of 1:2 ratio of ciprofloxacin to compound by broth microdilution method; assay type: functional
# Escherichia coli [18] = experiment: Antibiofilm activity against Escherichia coli UTI89 incubated for 24 hrs in presence of 1:2 ratio of ciprofloxacin to compound; assay type: functional
# [19] = Escherichia coli, UTI89, 18 h, read-out: MIC
smiles,measurement,setting,value
O=C(O)c1cn(C2CC2)c2cc(N3CCNCC3)c(F)cc2c1=O [CIPROFLOXACIN],MIC,Escherichia coli [1]; [19],≤ 0.045 µM
same,MBEC,Escherichia coli [2],<=800 uM
CC1(C)CC(C(=O)NCCCC[C@H](NC(=O)[C@@H](N)CCCCNC(=O)C2CC(C)(C)N([O])C(C)(C)C2)C(=O)N2CCN(c3cc4c(cc3F)c(=O)c(C(=O)O)cn4C3CC3)CC2)CC(C)(C)N1[O],pIC50,T-24,< 3.30
same,Activity,Escherichia coli [3],Active
same,Activity,Escherichia coli [4],1.35 log10CFU
same,Activity,Escherichia coli [5],2.69 log10CFU
same,Activity,Escherichia coli [6],50%
same,fold change (FC),Escherichia coli [7],3
same,Activity,Escherichia coli [8],>99%
same,MIC,Escherichia coli [1],<=10.5 uM
same,Activity,Escherichia coli [9],99.7%
same,Activity,Escherichia coli [10],98%
same,Activity,Escherichia coli [11],1.82 log10CFU
same,MBEC,Escherichia coli [2],<=400 uM
same,Activity,Escherichia coli [12],99.9%
same,Activity,Escherichia coli [13],Active
same,Activity,Escherichia coli [14],93%
same,Ratio,Escherichia coli [15],2
same,Activity,Escherichia coli [16],Active
CC1(C)CC(C(=O)NCCCC[C@H](N)C(=O)N2CCN(c3cc4c(cc3F)c(=O)c(C(=O)O)cn4C3CC3)CC2)CC(C)(C)N1[O],MIC,Escherichia coli [1],< 1.95 µM
same,MBEC,Escherichia coli [2],> 1000 µM
CON1C(C)(C)CC(C(=O)NCCCC[C@H](N)C(=O)N2CCN(c3cc4c(cc3F)c(=O)c(C(=O)O)cn4C3CC3)CC2)CC1(C)C,MIC,Escherichia coli [1]; [19],≤ 30.6 µM
same,MBEC,Escherichia coli [2],>1000 µM
CC1(C)CC(C(=O)O)CC(C)(C)N1[O],MIC,Escherichia coli [17],<=0.045 uM
same,MIC,Escherichia coli [1],>1000 µM
same,MBEC,Escherichia coli [2],>1000 µM
same,MBEC,Escherichia coli [18],<=800 uM
CON1C(C)(C)CC(C(=O)NCCCC[C@H](NC(=O)[C@@H](N)CCCCNC(=O)C2CC(C)(C)N(OC)C(C)(C)C2)C(=O)N2CCN(c3cc4c(cc3F)c(=O)c(C(=O)O)cn4C3CC3)CC2)CC1(C)C,MIC,Escherichia coli [1]; [19],≤ 81.6 µM
same,MBEC,Escherichia coli [2],>650 µM
